In ChEMBL document CHEMBL3867461, “Design, synthesis, and evaluation of (2S,4R)-Ketoconazole sulfonamide analogs as potential treatments for Metabolic Syndrome” (Bioorg Med Chem Lett, 2016):

Tests used:
Type in all cases: ADME, organism-based, Cavia porcellus
Settings in all cases: in vivo
[1] = Tmax in Hartley guinea pig at 10 mg/kg, po administered as single dose
[2] = AUC (0 to infinity) in Hartley guinea pig at 1 mg/kg, iv administered as single dose; set-up: dose 1 mg/kg, route intravenous, time infinity
[3] = Cmax in Hartley guinea pig at 10 mg/kg, po administered as single dose; set-up: dose 10 mg/kg, route oral
[4] = AUC (0 to infinity) in Hartley guinea pig at 10 mg/kg, po administered as single dose; set-up: dose 10 mg/kg, route oral, time infinity
[5] = Volume of distribution in Hartley guinea pig at 1 mg/kg, iv administered as single dose
[6] = Oral bioavailability in Hartley guinea pig at 10 mg/kg
[7] = Tmax in Hartley guinea pig at 1 mg/kg, iv administered as single dose
[8] = Cmax in Hartley guinea pig at 1 mg/kg, iv administered as single dose; set-up: dose 1 mg/kg, route intravenous

Row | Tmax [1] [min] | AUC(0-inf) [2] [ng·h/mL] | Cmax [3] [ng/mL] | AUC(0-inf) [4] [ng·h/mL] | Vd [5] [L/kg] | bioavailability [6] [%] | Tmax [7] [min] | Cmax [8] [ng/mL] | SMILES
1 | 40.2 | 547 | 358 | 571 | 3 | 10.4 | 11.4 | 534 | CC(C)S(=O)(=O)N1CCN(c2ccc(OC[C@@H]3CO[C@@](Cn4ccnc4)(c4ccc(Cl)cc4Cl)O3)cc2)CC1
2 | 70.2 | 560 | 710 | 3710 | 4.4 | 61.4 | 6 | 446 | CCS(=O)(=O)N1CCN(c2ccc(OC[C@@H]3CO[C@@](Cn4ccnc4)(c4ccc(Cl)cc4Cl)O3)cc2)CC1
3 | 90 | 715 | 1560 | 7580 | 2.9 | 98.5 | 4.8 | 514 | O=S(=O)(C1CC1)N1CCN(c2ccc(OC[C@@H]3CO[C@@](Cn4ccnc4)(c4ccc(Cl)cc4Cl)O3)cc2)CC1
4 | 40.2 | 1160 | 1970 | 4600 | 2.5 | 39.5 | 4.8 | 2090 | N#CCS(=O)(=O)N1CCN(c2ccc(OC[C@@H]3CO[C@@](Cn4ccnc4)(c4ccc(Cl)cc4Cl)O3)cc2)CC1
